From the supplement of paper PMC10307832

Assays:
Assay in all cases: relative viability (nuclei count vs DMSO), 5 days (fraction); higher = more cells survive
Tozasertib + OSI-027 = compound: Cc1cc(Nc2cc(N3CCN(C)CC3)nc(Sc3ccc(NC(=O)C4CC4)cc3)n2)n[nH]1 [Tozasertib] + COc1cccc2cc(-c3nc([C@H]4CC[C@H](C(=O)O)CC4)n4ncnc(N)c34)[nH]c12 [OSI-027] (partner 0.5 µM)
Outline: (§1)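 Relative viability divides the nuclei count in treated wells by that in vehicle wells. Lung cancer cell lines were seeded in 1536-well plates, dosed by pin tool the next day, and fixed and stained after 5 days in one step with final 0.05% Triton X-100, 1% formaldehyde and 1 ug/ml Hoechst. Dosing was a single drug or a fixed anchor-drug dose plus five library-drug doses (not always all listed) in √10 steps, and values are medians of duplicate plates imaged at 4×.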

Tozasertib + Vorinostat = compound: Cc1cc(Nc2cc(N3CCN(C)CC3)nc(Sc3ccc(NC(=O)C4CC4)cc3)n2)n[nH]1 [Tozasertib] + O=C(CCCCCCC(=O)Nc1ccccc1)NO [Vorinostat] (partner 1 µM)
Outline: as §1

Tozasertib + Linsitinib = compound: Cc1cc(Nc2cc(N3CCN(C)CC3)nc(Sc3ccc(NC(=O)C4CC4)cc3)n2)n[nH]1 [Tozasertib] + C[C@]1(O)C[C@@H](c2nc(-c3ccc4ccc(-c5ccccc5)nc4c3)c3c(N)nccn32)C1 [Linsitinib] (partner 1 µM)
Outline: as §1

Tozasertib + Foretinib = compound: Cc1cc(Nc2cc(N3CCN(C)CC3)nc(Sc3ccc(NC(=O)C4CC4)cc3)n2)n[nH]1 [Tozasertib] + COc1cc2c(Oc3ccc(NC(=O)C4(C(=O)Nc5ccc(F)cc5)CC4)cc3F)ccnc2cc1OCCCN1CCOCC1 [Foretinib] (partner 0.25 µM)
Outline: as §1

Tozasertib + Bortezomib = compound: Cc1cc(Nc2cc(N3CCN(C)CC3)nc(Sc3ccc(NC(=O)C4CC4)cc3)n2)n[nH]1 [Tozasertib] + CC(C)C[C@H](NC(=O)[C@H](Cc1ccccc1)NC(=O)c1cnccn1)B(O)O [Bortezomib] (partner 0.002 µM)
Outline: as §1

| Cell Line | relative viability (Tozasertib + OSI-027; first compound 0.004 µM) | relative viability (Tozasertib + OSI-027; first compound 0.01265 µM) | relative viability (Tozasertib + OSI-027; first compound 0.04 µM) | relative viability (Tozasertib + OSI-027; first compound 0.1265 µM) | relative viability (Tozasertib + Vorinostat; first compound 0.004 µM) | relative viability (Tozasertib + Vorinostat; first compound 0.01265 µM) | relative viability (Tozasertib + Vorinostat; first compound 0.04 µM) | relative viability (Tozasertib + Vorinostat; first compound 0.1265 µM) | relative viability (Tozasertib + Linsitinib; first compound 0.004 µM) | relative viability (Tozasertib + Linsitinib; first compound 0.01265 µM) | relative viability (Tozasertib + Linsitinib; first compound 0.1265 µM) | relative viability (Tozasertib + Foretinib; first compound 0.004 µM) | relative viability (Tozasertib + Foretinib; first compound 0.01265 µM) | relative viability (Tozasertib + Foretinib; first compound 0.04 µM) | relative viability (Tozasertib + Foretinib; first compound 0.1265 µM) | relative viability (Tozasertib + Bortezomib; first compound 0.004 µM) | relative viability (Tozasertib + Bortezomib; first compound 0.01265 µM) | relative viability (Tozasertib + Bortezomib; first compound 0.04 µM) | relative viability (Tozasertib + Bortezomib; first compound 0.1265 µM) | relative viability (Tozasertib + Linsitinib; first compound 0.04 µM) |
| --- | --- | --- | --- | --- | --- | --- | --- | --- | --- | --- | --- | --- | --- | --- | --- | --- | --- | --- | --- | --- |
| HOP-62 | 0.902 | 0.844 | 0.941 | 0.793 | 0.621 | 0.483 | 0.628 | 0.462 | 1.05 | 0.876 | 1.09 | 0.953 | 1.07 | 1.06 | 0.915 | 0.735 | 0.713 | 0.404 | 0.67 | – |
| NCI-H322M | 0.546 | 0.502 | 0.561 | 0.412 | 0.91 | 0.828 | 0.984 | 0.588 | 0.893 | 0.998 | 0.848 | – | 0.941 | 1.02 | 0.47 | 0.993 | 1.12 | 1.39 | 1.23 | 0.923 |
| HCC-366 | 0.991 | 0.862 | 1.01 | 0.575 | 0.371 | 0.3 | 0.198 | 0.0431 | 0.766 | 0.6 | 0.101 | – | 0.912 | 0.63 | 0.0962 | 1.2 | 1 | 1.15 | 0.53 | 0.755 |
| NCI-H460 | 0.855 | 0.645 | 0.668 | 0.519 | 0.83 | 0.769 | 0.912 | 0.163 | 0.738 | 0.751 | 0.149 | 1.03 | 0.981 | 1.01 | 0.504 | 1.13 | 0.949 | 1.46 | 0.844 | 0.787 |
| HCC-827 | 0.314 | – | 0.789 | 0.582 | 0.87 | 0.835 | 0.89 | 0.584 | 1.02 | 1 | 0.84 | 0.996 | 1.03 | 1.13 | 0.758 | 1.03 | 1.04 | 1.06 | 0.839 | – |
| HARA | 0.467 | 0.447 | 0.583 | 0.343 | 0.674 | 0.427 | 0.507 | 0.419 | 1 | – | 0.374 | – | 0.824 | 1.03 | 0.145 | 1.18 | 1 | 1.01 | 0.664 | 1.01 |
| NCI-H441 | 0.57 | 0.647 | 0.568 | 0.6 | 0.852 | 0.823 | 0.845 | 0.766 | 0.496 | 0.551 | 0.353 | 1.05 | 0.914 | 0.895 | 0.887 | 0.424 | 0.298 | 0.379 | 0.213 | 0.616 |
| PC-14 | – | 0.795 | 1.06 | 0.523 | – | 0.741 | 0.879 | 0.121 | 1.01 | 1 | 0.828 | 0.966 | 1.09 | 1.04 | 0.986 | 0.861 | 0.9 | 1.03 | 0.896 | 1.03 |
| NCI-H1755 | 0.661 | 0.636 | 0.725 | 0.601 | 0.749 | 0.782 | 0.744 | 0.675 | 0.976 | 0.948 | 0.865 | 0.984 | 0.455 | 0.893 | 0.743 | 0.938 | 0.927 | 1.04 | 0.626 | 0.999 |
| NCI-H2347 | 0.447 | – | 0.369 | 0.389 | 0.586 | 0.643 | 0.57 | 0.664 | 0.978 | 1 | 0.914 | 1.17 | 0.908 | 0.842 | 0.87 | 1.18 | 0.961 | 1 | 0.658 | 0.964 |
| NCI-H647 | 0.836 | 0.763 | 0.763 | 0.33 | 0.729 | 0.377 | 0.384 | 0.172 | 0.854 | 1.33 | – | 1.24 | 1.28 | 1.34 | – | 1.17 | – | 1.16 | 0.447 | 1.22 |
| ABC-1 | 0.542 | 0.495 | 0.58 | 0.207 | 1.35 | 1 | 0.767 | 0.306 | 0.831 | – | 0.767 | 0.988 | 1.27 | 0.838 | 0.381 | 0.278 | 0.282 | 0.3 | 0.231 | 0.554 |
| NCI-H520 | 0.356 | 0.26 | 0.254 | 0.234 | 0.814 | 0.747 | 0.575 | 0.224 | 1.07 | 0.952 | 0.472 | 0.872 | 0.602 | 0.923 | 0.608 | 0.555 | 0.585 | 0.852 | 0.255 | 0.978 |
| HCC-78 | 0.387 | 0.357 | 0.363 | 0.361 | 0.445 | 0.386 | 0.45 | 0.373 | 0.661 | 0.452 | 0.439 | 0.678 | 0.708 | 0.587 | 0.466 | 0.504 | – | – | 0.497 | 0.588 |
| NCI-H1355 | 0.368 | 0.383 | 0.458 | 0.343 | 0.594 | 0.571 | 0.669 | 0.516 | 0.751 | 0.816 | 0.722 | 0.942 | 0.926 | 0.901 | 0.853 | 1.19 | 1.15 | 1.27 | 0.606 | 0.912 |
| NCI-H2087 | 0.638 | 0.576 | 0.64 | 0.444 | 0.477 | 0.537 | 0.544 | 0.382 | 0.925 | 1.13 | 0.841 | 1.16 | 0.796 | 1.15 | 0.613 | 0.83 | 0.787 | 0.78 | 0.723 | 1.08 |
| NCI-H3122 | 1.04 | 0.915 | 0.967 | 0.928 | 0.852 | 1.07 | 0.869 | 0.485 | 0.994 | 0.997 | 1.05 | 0.969 | 0.94 | 0.977 | 0.944 | 1.01 | 0.994 | 1.01 | 1.02 | 0.962 |
| CAL-12T | 0.954 | 0.562 | 0.719 | 0.214 | 0.694 | 0.677 | 0.751 | 0.305 | 0.857 | 0.804 | 0.64 | 1.19 | 1.04 | 1.11 | 1.11 | 1.2 | 0.785 | 0.962 | 0.362 | 0.793 |
| LOU-NH91 | – | 0.675 | 0.763 | 0.728 | 0.761 | 0.889 | 0.983 | 0.707 | 0.573 | 0.954 | 0.947 | – | 0.923 | 1.02 | 0.918 | 0.423 | 0.51 | 0.485 | 0.408 | 1.03 |
| NCI-H1666 | 0.859 | – | 0.814 | 0.765 | 0.988 | 1.06 | 1 | 0.961 | 0.835 | 0.854 | 0.64 | 0.978 | 0.879 | 0.97 | 0.762 | 0.772 | 0.748 | – | 0.434 | 0.861 |
| NCI-H1975 | 0.968 | 0.758 | – | 0.683 | 0.706 | 0.706 | 0.72 | 0.583 | 0.961 | 1.06 | 0.953 | 1 | 1.03 | 1.03 | 0.844 | 0.319 | 0.408 | – | 0.338 | 1.04 |
| NCI-H1651 | 0.888 | 0.645 | – | 0.666 | 0.603 | 0.56 | – | 0.361 | 1.19 | 0.899 | 0.923 | 0.694 | 0.773 | 0.856 | 0.87 | 1.05 | 0.851 | 0.979 | 0.885 | 0.972 |
| NCI-H661 | 0.731 | 0.747 | 0.722 | 0.302 | 0.912 | 0.806 | 0.549 | 0.312 | 0.61 | 0.564 | 0.402 | 1.09 | 0.982 | 1.03 | 0.357 | 0.922 | 0.741 | 1.03 | 0.499 | 0.497 |
| NCI-H23 | 0.614 | 0.629 | 0.666 | 0.453 | – | 0.693 | 0.599 | 0.168 | 0.653 | 0.519 | 0.291 | 1.02 | 0.887 | 0.848 | 0.331 | 1.06 | 1.24 | 1.11 | 0.424 | 0.55 |
| LXF-289 | 0.695 | 0.731 | 0.779 | 0.441 | 0.731 | 0.702 | 0.533 | 0.252 | 0.994 | 0.883 | 0.554 | 1.06 | 0.963 | 0.912 | 0.739 | 1 | 0.917 | 0.972 | 0.777 | 0.868 |
| NCI-H1915 | 0.669 | 0.592 | 0.658 | 0.569 | 0.505 | 0.564 | 0.512 | 0.439 | 1.1 | 1.06 | 1.05 | 1.16 | 1.02 | 1.06 | 0.862 | 1.07 | 0.924 | 0.953 | 0.727 | – |
| COR-L23 | 0.747 | 0.726 | 0.635 | 0.538 | 0.522 | 0.403 | 0.393 | 0.198 | 0.99 | 0.906 | 0.39 | 0.998 | 0.847 | 0.783 | 0.523 | 0.986 | 0.889 | 0.888 | 0.864 | 0.846 |
| NCI-H596 | 0.785 | 0.628 | 0.797 | 0.771 | 0.655 | 0.538 | 0.72 | 0.451 | 1.08 | 0.979 | 1.03 | 0.827 | 0.916 | 0.864 | 0.766 | 1.06 | 1.1 | 1.06 | 0.796 | 1.15 |
